Reference: patent US8629251B2, “Specific detection and quantification of phosphatidic acid using an Arabidopsis trigalactosyldiacylglycerol-4 (TGD4) protein” (Board of Trustees of Michigan State University, priority 2008, dated 2014)

Experiments:
Type in all cases: binding
[1] = biological target: T1, Arabidopsis TGD4, DsRED-TGD4-His, full-length TGD4 1-479 (SEQ ID NO: 132) (Arabidopsis thaliana, UniProt Q9M903); assay: Protein-lipid overlay assay, DsRED-TGD4-His; conditions: commercial phospholipid membrane, FIG. 18A
T1 sequence (Q9M903 1-479): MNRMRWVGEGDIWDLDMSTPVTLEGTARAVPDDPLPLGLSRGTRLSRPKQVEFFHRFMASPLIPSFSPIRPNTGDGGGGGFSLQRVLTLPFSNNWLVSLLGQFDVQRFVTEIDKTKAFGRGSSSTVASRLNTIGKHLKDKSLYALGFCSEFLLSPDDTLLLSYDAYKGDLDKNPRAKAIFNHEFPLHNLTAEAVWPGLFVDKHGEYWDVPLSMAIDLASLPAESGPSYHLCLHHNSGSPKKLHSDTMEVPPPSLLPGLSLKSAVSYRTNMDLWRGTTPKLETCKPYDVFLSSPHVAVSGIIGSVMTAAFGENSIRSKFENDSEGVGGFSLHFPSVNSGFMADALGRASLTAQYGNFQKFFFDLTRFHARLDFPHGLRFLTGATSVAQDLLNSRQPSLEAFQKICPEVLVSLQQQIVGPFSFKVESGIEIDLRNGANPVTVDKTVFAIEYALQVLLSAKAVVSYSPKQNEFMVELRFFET
Description: Protein-Lipid Overlay Assay:
The protein-lipid overlay assay was modified from (Awai et al., 2006, Lu and Benning, 2009). Phosphoinositol-4,5-bisphosphate PIP2) lipid strips were purchased from Echelon Biosciences (Salt Lake City, Utah). Lipids spotted onto membranes were purchased from Avanti Polar Lipids (Alabaster, Al.) as well as Larodan Fine Chemicals (Malmo, Sweden). Lipids (10 nmol) were suspended in 20 μl spotting buffer (250 μl chloroform, 500 μl methanol, 200 μl 50 mM HCl, 2 μl 1% (w/v) Ponseau S (Sigma, St. Louis, Mo.)) and spotted onto Amersham Hybond-C Extra membranes (GE Healthcare, Piscataway, N.J.) followed by drying for 1 hour in a fume hood. The lipid membranes were then blocked in 3% (w/v) bovine serum albumin (BSA) in TBST buffer (TBS with 0.25% (v/v) Tween 20) for 2 hours at room temperature. Purified DsRED-TGD4-His fusion proteins were added at 1 μg/ml final concentration and incubated overnight at 4° C. followed by washing 3 times in TBST. Lipid membranes were then incubated with 1:2000 diluted His antibody (Sigma) in blocking buffer for 2 hours at room temperature followed by 2 washes with TBST. The membranes were processed for immunoblotting as described below.

[2] = biological target: T2, Arabidopsis TGD4, TGD4N-DsRED-His (N-terminal fragment 1-286, SEQ ID NO:130) (Arabidopsis thaliana, UniProt Q9M903); assay: Liposome association assay, TGD4N-DsRED-His; conditions: dioleoyl-PtdOH/dioleoyl-PtdCho liposomes, 0 to 80% PtdOH, FIG. 19B
T2 construct: made in house; host or cells: Escherichia coli BL21 (DE3)
T2 sequence (Q9M903 1-286): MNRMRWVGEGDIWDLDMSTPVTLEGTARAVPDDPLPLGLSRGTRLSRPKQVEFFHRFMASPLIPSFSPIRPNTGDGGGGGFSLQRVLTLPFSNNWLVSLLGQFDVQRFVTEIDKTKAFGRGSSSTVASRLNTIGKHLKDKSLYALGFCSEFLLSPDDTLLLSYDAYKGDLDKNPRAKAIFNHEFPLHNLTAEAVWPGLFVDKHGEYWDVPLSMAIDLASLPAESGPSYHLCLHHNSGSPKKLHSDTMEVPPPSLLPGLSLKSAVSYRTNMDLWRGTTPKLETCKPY
Description: (§1) Liposome Association Assay:
(§2) The liposome association assay was adapted from (Awai et al., 2006, Lu and Benning, 2009) with minor modifications. Dioleoyl-PtdCho and PtdOH with different acyl chain lengths and desaturation levels were used for making liposomes. In other liposomes 1-palmitoyl-2-(12-((7-nitro-2-1,3-benzoxadiazol-4-yl)amino)dodecanoyl)-sn-glycero-3-phosphate (NBD-PtdOH; Avanti, Alabaster, Ala.) was used. The lipids were mixed at indicated ratios to give a total lipid amount of 250 μg. The lipids were dried under a stream of nitrogen, resuspended in 0.5 ml TBS buffer with 0.2 M choline chloride and hydrated at 37° C. for 1 hour followed by vigorous vortexing for 2 minutes. The resulting multi-lamellar vesicles were centrifuged at 13,000×g for 10 minutes and then washed once with TBS buffer containing 0.2 M choline chloride. The liposomes were resuspended into 100 μl TBS buffer with 0.2 M choline chloride and incubated with 2 μg purified DsRED-TGD4-His protein and its derivatives. The protein liposome mixture was incubated on ice for 30 minutes followed by centrifugation at 13,000×g for 10 minutes and two washes with 500 μl TBS containing 0.2 M choline chloride. The resulting protein-liposome pellet was resuspended in 20 μl 2× Laemmli buffer (Laemmli, 1970) and processed by SDS-PAGE (Shapiro and Maizel, 1969).

[3] = biological target: T3, Arabidopsis TGD4, DsRED-TGD4C-His (C-terminal fragment 309-479, SEQ ID NO: 131) (Arabidopsis thaliana, UniProt Q9M903); assay: Liposome association assay, DsRED-TGD4C-His; conditions: dioleoyl-PtdOH/dioleoyl-PtdCho liposomes, 0 to 80% PtdOH, FIG. 19B
T3 sequence (Q9M903 309-479): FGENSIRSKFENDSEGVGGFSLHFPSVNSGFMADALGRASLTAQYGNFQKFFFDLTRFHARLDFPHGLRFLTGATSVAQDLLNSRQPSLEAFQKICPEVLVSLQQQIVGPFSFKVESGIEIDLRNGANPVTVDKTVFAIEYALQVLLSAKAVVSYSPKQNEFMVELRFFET
Description: as §1, §2

[4] = biological target: T4, Arabidopsis TGD2, DsRed-TGD2C T9 (residues 221-250, SEQ ID NO:40) (Arabidopsis thaliana, UniProt Q9LTR2); assay: Liposome-association assay, TGD2C T9 (221-250)
T4 sequence (Q9LTR2 221-250): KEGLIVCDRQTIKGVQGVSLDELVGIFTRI
Description: The liposome association assay was performed as previously reported. (31). Briefly, lipids (dioleoyl-phosphatidylcholine, DOPC or dioleoyl-PA, DOPA) were incubated in TBS (50 mM Tris-HCl, pH 7; 0.1 M NaCl) at 37° C. for an hour followed by vigorous vortexing for 5 min. The liposomes were precipitated at 20,000 g and washed twice with ice-cold TBS.
Liposomes (200 μg) were mixed with purified DsRed-TGD2 fusion protein and TBS to make a final 100 μL solution. The mixture was incubated at 30° C. for 30 min and washed twice with ice-cold TBS by centrifugation at 20,000 g at 4° C. The liposome pellet mixed with sample buffer was analyzed by SDS-PAGE (28). Immuno-detection of the His-tagged protein was accomplished using the above mentioned Penta-His antibody at 1:15,000 and the anti mouse antibody at 1:75,000 dilution.
The protein band was visualized by chemiluminescent detection kit from Sigma. The autoradiography film was scanned, distinct protein bands were quantified using computer software Multi Gauge V3.0 (Fujifilm USA, Valhalla, N.Y.) and resulted data were plotted and analyzed by OriginPro8 (Origin lab corporation, Northampton, Mass.).

With `CCCCCCCC/C=C\CCCCCCCC(=O)OC[C@H](COP(=O)(O)O)OC(=O)CCCCCCC/C=C\CCCCCCCC` [PA, phosphatidic acid] the “binding to lipids on membranes” value [1] was “specifically bind”, the PtdOH binding affinity [2] was “comparable to the full-length protein DsRED-TGD4-His” and the PtdOH binding affinity [3] was “much lower affinity compared to the wild-type protein DsRED-TGD4-His but still bound PtdOH”. For the same compound, the PA binding [4] was “no interaction to PA was detected”.
